This passage reports EC50 and Emax results from US11365199B2, “Pyrazole compounds as modulators of FSHR and uses thereof” (Merck Patent GmbH, priority 2013, dated 2022).

One experiment deals with T1, FSHR (Homo sapiens, UniProt P23945).
T1 construct: expressed in transfected cells; host or cells: CHO (Cho-FSHR-LUC-1-1-43)
T1 sequence (P23945 18-695): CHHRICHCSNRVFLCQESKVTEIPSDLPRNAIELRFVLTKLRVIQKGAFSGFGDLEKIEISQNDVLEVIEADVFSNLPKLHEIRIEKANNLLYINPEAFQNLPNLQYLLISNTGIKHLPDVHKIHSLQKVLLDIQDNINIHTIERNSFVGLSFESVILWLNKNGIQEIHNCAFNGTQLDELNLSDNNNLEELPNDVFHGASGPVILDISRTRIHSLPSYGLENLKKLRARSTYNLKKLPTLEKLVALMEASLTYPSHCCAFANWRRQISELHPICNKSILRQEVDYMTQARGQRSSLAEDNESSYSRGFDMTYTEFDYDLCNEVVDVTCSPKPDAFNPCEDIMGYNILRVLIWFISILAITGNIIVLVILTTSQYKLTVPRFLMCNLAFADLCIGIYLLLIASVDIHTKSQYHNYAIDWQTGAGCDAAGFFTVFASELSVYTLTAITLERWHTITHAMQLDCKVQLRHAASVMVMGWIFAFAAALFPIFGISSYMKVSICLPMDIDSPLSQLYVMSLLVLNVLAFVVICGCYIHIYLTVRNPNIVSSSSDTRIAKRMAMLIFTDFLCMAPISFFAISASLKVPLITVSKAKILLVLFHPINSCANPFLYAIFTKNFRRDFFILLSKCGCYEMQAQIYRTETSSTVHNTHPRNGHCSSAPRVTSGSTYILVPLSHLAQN
Briefly: EC50 of cyclic AMP production in CHO FSHR cells + EC20 FSH (Assay A). Format: cell-based. To be noted: CHO FSHR cells + EC20 FSH, cAMP HTRF; read-out: Assay A: EC50 of cyclic AMP production. In outline:
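Cho-FSHR-LUC cells were exposed to compound dilution series with EC20 FSH ([…]) and 200 μM IBMX for 1 h at 37° C. cAMP was read by HTRF (665/620 nm ratio). Effects are percent of the maximal FSH standard response.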
A general note: TR-FRET usually uses a lanthanide donor and a delayed reading to cut background.

For experiment [1], the target named is T2, follicle-stimulating hormone (FSH) receptor (Rattus norvegicus, UniProt P20395).
T2 construct: endogenous in cells; host or cells: primary rat granulosa cells
T2 sequence (P20395 18-692): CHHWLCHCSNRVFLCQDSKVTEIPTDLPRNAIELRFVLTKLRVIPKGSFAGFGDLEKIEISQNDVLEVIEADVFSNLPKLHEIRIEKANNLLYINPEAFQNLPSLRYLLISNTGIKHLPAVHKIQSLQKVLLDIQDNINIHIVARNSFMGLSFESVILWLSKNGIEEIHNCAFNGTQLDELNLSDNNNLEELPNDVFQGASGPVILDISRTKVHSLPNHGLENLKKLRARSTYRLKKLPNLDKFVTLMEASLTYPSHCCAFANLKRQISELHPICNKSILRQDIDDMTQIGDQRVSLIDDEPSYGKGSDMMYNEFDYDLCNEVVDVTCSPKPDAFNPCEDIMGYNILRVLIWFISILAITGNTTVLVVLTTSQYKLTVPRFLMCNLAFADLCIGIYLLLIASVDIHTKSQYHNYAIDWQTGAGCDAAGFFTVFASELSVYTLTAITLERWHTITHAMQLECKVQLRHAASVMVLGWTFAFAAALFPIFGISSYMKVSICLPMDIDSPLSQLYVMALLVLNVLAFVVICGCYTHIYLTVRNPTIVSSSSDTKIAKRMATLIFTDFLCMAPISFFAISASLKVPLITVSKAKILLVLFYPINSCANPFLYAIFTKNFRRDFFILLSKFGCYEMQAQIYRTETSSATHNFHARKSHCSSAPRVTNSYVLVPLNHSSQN
Briefly: Rat granulosa EC50 FSH (Assay B). Particulars: for EC50: rat granulosa cells, read-out: Assay B: Rat granulosa EC50 FSH. It counts as cell-based. As for the experimental part:
Rat Granulosa EC50 FSH (Assay B)
The assay was performed pursuant to the teaching of Yanofsky et al. (2006) Allosteric activation of the follicle-stimulating hormone (FSH) receptor by selective, nonpeptide agonists (JBC 281(19): 13226-13233, which is incorporated by reference in the disclosure of the invention).

In general, EC50 refers to the concentration needed to bring the measured effect to its halfway point. For the compound `COC(=O)C1CCCN(C(=O)c2nn(-c3ccsc3)c3c2COc2cc(OC)c(C=C(C)C)cc2-3)CC1` (stereo not shown) [Compound 17, 1-[7-Methoxy-8-(2-methyl-propenyl)-1-thiophen-3-yl-1,4-dihydro-chromeno[4,3-c]pyrazole-3-carbonyl]-azepane-4-carboxylic acid methyl ester], the EC50 at FSHR is 100 to 1000 nM; in experiment [1], over 5000 nM.
Turning to `COc1cc2c(cc1C=C(C)C)-c1c(c(C(=O)N3CCCC(C(=O)O)CC3)nn1-c1ccsc1)CO2` (stereo not shown) [Compound 18, 1-[7-Methoxy-8-(2-methyl-propenyl)-1-thiophen-3-yl-1,4-dihydro-chromeno[4,3-c]pyrazole-3-carbonyl]-azepane-4-carboxylic acid], the EC50 on FSHR fell in the range of 1000 to 5000 nM. In experiment [1] (@ 30 μM, read-out: Assay B: percental effect (response) relative to the maximum response of the FSH standard), the Emax at 30 µM worked out at 30%.
Regarding `COc1cc2c(cc1-c1cnn(C3CC3)c1)-c1c(c(C(=O)N3CCOCC3(C)C)nn1-c1ccsc1)CO2` [Compound 215], the EC50 on FSHR was under 100 nM; in experiment [1], 100 to 1000 nM.
The like results for `COc1cc2c(cc1-c1cccn1C)-c1c(c(C(=O)N3CCOCC3(C)C)nn1-c1ccsc1)CO2` [Compound 125, (3,3-Dimethyl-morpholin-4-yl)-[7-methoxy-8-(1-methyl-1H-pyrrol-2-yl)-1-thiophen-3-yl-1,4-dihydro-chromeno[4,3-c]pyrazol-3-yl]-methanone] were, in that order, under 100 nM and 1000 to 5000 nM.
Take `[2H]C([2H])([2H])OCC1(N(C(=O)c2nn(-c3ccsc3)c3c2COc2cc(OC)c(S(=O)(=O)C(C)C)cc2-3)C([2H])([2H])[2H])COC1` [Compound 200]: the EC50 was under 100 nM at FSHR and over 5000 nM in experiment [1].
For `[2H]C([2H])([2H])OCC1(C)CCCN1C(=O)c1nn(-c2ccsc2)c2c1COc1cc(OC)c(-c3ccn(C)c3)cc1-2` (stereo not shown) [Compound 184] the same measures were under 100 nM and under 100 nM.
The like results for `COc1cc2c(cc1-c1ccn(C)c1)-c1c(c(C(=O)N3CCNCC3(C)C)nn1-c1ccsc1)CO2` [Compound 170] were, in that order, under 100 nM and 1000 to 5000 nM.
For `COc1cc2c(cc1-c1ccn(C)c1)-c1c(c(C(=O)NC3(C)COC3)nn1-c1ccsc1)CO2` [Compound 99, 7-Methoxy-8-(1-methyl-1H-pyrrol-3-yl)-1-thiophen-3-yl-1,4-dihydro-chromeno[4,3-c]pyrazole-3-carboxylic acid (3-methyl-oxetan-3-yl)-amide] the same measures were 100 to 1000 nM and 100 to 1000 nM.
Regarding `COc1cc2c(cc1-c1ccn(C)n1)-c1c(c(C(=O)N3CCN(C)CC3(C)C)nn1-c1ccsc1)CO2` [Compound 159, [7-Methoxy-8-(1-methyl-1H-pyrazol-3-yl)-1-thiophen-3-yl-1,4-dihydro-chromeno[4,3-c]pyrazol-3-yl]-(2,2,4-trimethyl-piperazin-1-yl)-methanone], the EC50 (at FSHR; in experiment [1]) was under 100 nM in each case.
In the case of `COc1cc2c(cc1C=C(C)C)-c1c(c(C(=O)NCCNC(C)=O)nn1-c1ccsc1)CO2` [Compound 7, 7-Methoxy-8-(2-methyl-propenyl)-1-thiophen-3-yl-1,4-dihydro-chromeno[4,3-c]pyrazole-3-carboxylic Acid (2-acetylamino-ethyl)-amide], the EC50 at FSHR lay within 1000 to 5000 nM. Besides, the Emax at 6 µM in experiment [1] (@ 6 μM, read-out: Assay B: percental effect (response) relative to the maximum response of the FSH standard) stood at 43.5%.
On to `COc1cc2c(cc1-c1cn(C)nn1)-c1c(c(C(=O)N(C)C(C)(C)C)nn1-c1ccsc1)CO2` [Compound 153, 7-Methoxy-8-(1-methyl-1H-[1,2,3]triazol-4-yl)-1-thiophen-3-yl-1,4-dihydro-chromeno[4,3-c]pyrazole-3-carboxylic acid tert-butyl-methyl-amide], for which the EC50 (on FSHR; in experiment [1]) was under 100 nM in each case.
Take `COc1cc2c(cc1-c1ccn(C)n1)-c1c(c(C(=O)N3CCNCC3(C)C)nn1-c1ccsc1)CO2` [Compound 169, (2,2-Dimethyl-piperazin-1-yl)-[7-methoxy-8-(1-methyl-1H-pyrazol-3-yl)-1-thiophen-3-yl-1,4-dihydro-chromeno[4,3-c]pyrazol-3-yl]-methanone]: the EC50 on FSHR is under 100 nM; in experiment [1], 100 to 1000 nM.
The like results for `COc1cc2c(cc1CC(C)C)-c1c(c(C(=O)N(C)C(C)(C)C)nn1-c1ccsc1)CO2` [Compound 5, 8-Isobutyl-7-methoxy-1-thiophen-3-yl-1,4-dihydro-chromeno[4,3-c]pyrazole-3-carboxylic Acid tert-butyl-methyl-amide] were, in that order, under 100 nM and 1000 to 5000 nM.
Regarding `COc1cc2c(cc1C=C(C)C)-c1c(c(C(=O)NC(C)(C)CO)nn1-c1ccsc1)CO2` [Compound 10, 7-Methoxy-8-(2-methyl-propenyl)-1-thiophen-3-yl-1,4-dihydro-chromeno[4,3-c]pyrazole-3-carboxylic acid (2-hydroxy-1,1-dimethyl-ethyl)-amide], the EC50 on FSHR was in the range of 100 to 1000 nM; in experiment [1], 1000 to 5000 nM.
